Tests used:
[1] = system: npba expression in Vs/Vp and PMm/PMg; experiment: npba expression in brain nuclei of gonad-intact medaka after immersion drug treatment (in situ hybridization); type: in vivo, medaka (Oryzias latipes); details: ovary-intact adult females, n = 5
From the text: (§1) DNA fragments of 645 bp, 647 bp, and 1520 bp corresponding to nucleotides 1–645 of the medaka npba cDNA (GenBank accession number NM_001308979), 1–647 of the medaka npbb EST clone of National BioResource Project (NBRP) Medaka (http://www.shigen.nig.ac.jp/medaka/) (clone ID: olova57o22), and 1699–3218 of the medaka npbwr2 cDNA (deposited in DDBJ/EMBL/GenBank with accession number LC375958), respectively, were PCR-amplified and subcloned into the pGEM-Teasy vector (Promega, Madison, WI). The resultant constructs were used to generate digoxigenin (DIG)-labeled cRNA probes for npba, npbb, and npbwr2 by using the DIG RNA Labeling Mix and T7 RNA polymerase (Roche Diagnostics). The procedure for in situ hybridization has been described previously ([Hiraki et al., 2012]). In brief, the brain, pituitary, and/or spinal cord were fixed in 4% paraformaldehyde (PFA), embedded in paraffin, and cut into 10 μm sections in the coronal plane. Hybridization signals were visualized by using alkaline phosphatase-conjugated anti-DIG antibody (Roche Diagnostics) and 5-bromo-4-chloro-3-indolyl phosphate/nitro blue tetrazolium (BCIP/NBT) substrate (Roche Diagnostics). Color development was allowed to proceed overnight or was stopped after 2–3 hr (for quantification of npba expression in Vs/Vp) or 15–30 min (for quantification of npba expression in PMm/PMg) to avoid saturation. All sections in each comparison were processed simultaneously under the same conditions.
(§2) To obtain quantitative data, the number of npba/npbb-expressing neurons in each brain nucleus or each brain/spinal cord region was counted manually. In some analyses, the resulting sections were photographed and converted to black and white binary images by thresholding using Adobe Photoshop (Adobe Systems, San Jose, CA), and the total area of npba/npbb expression was calculated by using ImageJ (http://rsbweb.nih.gov/ij/). The threshold was set manually by visual inspection of the images to successfully separate specific signals from background noise. Brain nuclei were identified by using medaka brain atlases ([Anken and Bourrat, 1998]; [Ishikawa et al., 1999]); http://www.shigen.nig.ac.jp/medaka/medaka_atlas/), supplemented with information from our Nissl-stained sections ([Kawabata et al., 2012]).
(§3) In another experiment, females with intact ovaries were treated with 100 ng/ml of KT or AI (Fadrozole; Sigma-Aldrich, St. Louis, MO) by immersion in water for 9 days. […] These fish were sampled on days 0 (untreated controls), 2, 5, and 9. The sex steroid concentration used was based on previously reported serum steroid levels in medaka ([Foran et al., 2002]; [Foran et al., 2004]; [Tilton et al., 2003]).

[2] = system: npbb expression in Vs/Vp and PMm/PMg/PPp; experiment: npbb expression in brain nuclei of gonad-intact medaka after immersion drug treatment (in situ hybridization); type: in vivo, medaka (Oryzias latipes); details: n = 5
From the text: as §1, §2, §3

[3] = system: npba expression in the whole brain; experiment: npba expression in whole brain of ovariectomized ΔERE mutant females treated with E2 (real-time PCR); type: in vivo, medaka (Oryzias latipes); details: OVX + 100 ng/ml E2, 6 days, n = 6 per group
[4] = system: npbb expression in Vs/Vp and PMm/PMg/PPp; experiment: npbb expression in brain nuclei of gonadectomized medaka after sex steroid supplementation (in situ hybridization); type: in vivo, medaka (Oryzias latipes); details: n = 5
From the text: DNA fragments of 645 bp, 647 bp, and 1520 bp corresponding to nucleotides 1–645 of the medaka npba cDNA (GenBank accession number NM_001308979), 1–647 of the medaka npbb EST clone of National BioResource Project (NBRP) Medaka (http://www.shigen.nig.ac.jp/medaka/) (clone ID: olova57o22), and 1699–3218 of the medaka npbwr2 cDNA (deposited in DDBJ/EMBL/GenBank with accession number LC375958), respectively, were PCR-amplified and subcloned into the pGEM-Teasy vector (Promega, Madison, WI). The resultant constructs were used to generate digoxigenin (DIG)-labeled cRNA probes for npba, npbb, and npbwr2 by using the DIG RNA Labeling Mix and T7 RNA polymerase (Roche Diagnostics). […] Color development was allowed to proceed overnight or was stopped after 2–3 hr (for quantification of npba expression in Vs/Vp) or 15–30 min (for quantification of npba expression in PMm/PMg) to avoid saturation. […]
To obtain quantitative data, the number of npba/npbb-expressing neurons in each brain nucleus or each brain/spinal cord region was counted manually. In some analyses, the resulting sections were photographed and converted to black and white binary images by thresholding using Adobe Photoshop (Adobe Systems, San Jose, CA), and the total area of npba/npbb expression was calculated by using ImageJ (http://rsbweb.nih.gov/ij/). […]

[5] = system: estradiol-17β (E2) in the brain; experiment: Brain levels of E2 in KT-treated females (LC-MS/MS); type: in vivo, medaka (Oryzias latipes); details: females treated with 100 ng/ml KT by immersion; within 2 days, low during remainder of treatment; n = 4 per sampling day; p<0.0001 on days 2, 5, and 9
Experimental: as §3
Dissected whole brains were frozen and stored at −80°C until analysis. Levels of E2 in the brains were analyzed by liquid chromatography coupled to tandem mass spectrometry (LC-MS/MS) at Aska Pharmamedical (Kanagawa, Japan).

[6] = system: npba expression in Vs/Vp and PMm/PMg; parameters: method as in Kikuchi et al., 2019; details: adult males treated with estrogen; ref Kikuchi et al., 2019; cited from earlier work
[7] = system: npba expression in Vs/Vp and PMm/PMg; details: estrogen replacement, ref Hiraki et al., 2014; cited from earlier work
From the text: We determined whether the sexual phenotype of npba expression can be reversed from the female to the male pattern, and vice versa, by altering the adult sex steroid milieu. […] Here, we first tested whether npba expression in these brain nuclei can be induced in males by castration and sex steroid supplementation.

[8] = system: ER expression in Vs/Vp and PMm/PMg; details: males treated with estrogen; ref Hiraki et al., 2012; cited from earlier work
From the text: Importantly, our results provide insight into the mechanisms underlying the reversal of sexually dimorphic npba expression. […] Considering these findings, it seems plausible that this estrogen-induced npba expression is not fully realized until sufficient ER expression is achieved.

[9] = system: Cckar expression; details: ref Xu et al., 2012, cited from earlier work
From the text: Another distinctive aspect of npba expression is the bidirectional reversibility of sexual dimorphism (both from female-typical to male-typical pattern and from male-typical to female-typical pattern). […] In mice, for example, the cholecystokinin receptor gene (Cckar) implicated in female sexual receptivity is expressed in the ventr ...

## N#Cc1ccc(C2CCCc3cncn32)cc1 (stereo not drawn) [AI, Fadrozole]
[1]; 100 ng/ml AI by immersion, p<0.0001 on days 2, 5, and 9
  number of npba-expressing neurons in Vs/Vp (compared with KT treatment): essentially the same results
[1]; 100 ng/ml AI by immersion, p=0.0063 and 0.0025 on days 5 and 9
  total area of npba expression in Vs/Vp (compared with KT treatment): essentially the same results
[1]; 100 ng/ml AI by immersion, p=0.0108 on day 9
  total area of npba expression in PMm/PMg (compared with KT treatment): essentially the same results
[2]; ovary-intact adult females, 100 ng/ml AI by immersion, 9 days
  npbb expression in PMm/PMg/PPp (significant decrease): not AI treatment
[2]; ovary-intact adult females, 100 ng/ml AI by immersion, p=0.0002 and <0.0001 on days 5 and 9
  number of npbb-expressing neurons in Vs/Vp: undetectable or nearly undetectable levels
[2]; ovary-intact adult females, 100 ng/ml AI by immersion, p=0.0013 and 0.0009 on days 5 and 9
  total area of npbb expression in Vs/Vp: undetectable or nearly undetectable levels

## C[C@]12CC[C@@H]3c4ccc(O)cc4CC[C@H]3[C@@H]1CC[C@@H]2O [E2, estradiol-17β]
[3]; p=0.0023
  npba expression in the whole brain, mutant versus wild-type females: not able to restore npba expression to the level present in wild-type females
[3]; ΔERE mutant females
  npba expression in the whole brain after ovariectomy and E2 treatment: restored by E2 treatment
[4]; castrated adult males, 100 ng/ml E2, 6 days, p<0.0001
  npbb-expressing neurons in Vs/Vp of castrated males: induced a few npbb-expressing neurons in Vs/Vp
[2]; testis-intact adult males, 100 ng/ml E2 by immersion, p=0.0369
  npbb-expressing neurons in Vs/Vp: a few npbb-expressing neurons were newly induced in Vs/Vp

## C[C@]12CC(=O)[C@H]3[C@@H](CCC4=CC(=O)CC[C@@]43C)[C@@H]1CC[C@@H]2O [KT, 11-ketotestosterone]
[1]; 100 ng/ml KT by immersion, 9 days
  number of npba-expressing neurons in PMm/PMg: unchanged
[1]; 100 ng/ml KT by immersion, 9 days, p=0.0002 on day 2, p<0.0001 on days 5 and 9
  total area of npba expression in Vs/Vp: undetectable or nearly undetectable levels
[1]; 100 ng/ml KT by immersion, days 0, 2, 5, 9, p<0.0001 on days 5 and 9 versus day 0
  number of npba-expressing neurons in Vs/Vp: undetectable or nearly undetectable levels
[1]; 100 ng/ml KT by immersion, p=0.0068 on day 9
  total area of npba expression in PMm/PMg: significant decline
[5]
  brain E2 levels, percent of untreated controls: less than 5%
[4]; ovariectomized adult females, 100 ng/ml KT, 6 days
  npbb expression in Vs/Vp and PMm/PMg/PPp after ovariectomy (restoration): not by KT
[2]; ovary-intact adult females, 100 ng/ml KT by immersion, number of neurons p=0.0038 on day 9, total area p=0.0021 and <0.0001 on days 5 and 9
  npbb expression in PMm/PMg/PPp: significant decrease
[2]; ovary-intact adult females, 100 ng/ml KT by immersion, p<0.0001 on days 5 and 9
  number of npbb-expressing neurons in Vs/Vp: undetectable or nearly undetectable levels
[2]; ovary-intact adult females, 100 ng/ml KT by immersion, p=0.0235, <0.0001, <0.0001 on days 2, 5, and 9
  total area of npbb expression in Vs/Vp: undetectable or nearly undetectable levels

## estrogen
[6]
  emergence of Npba-expressing neurons in adult males: emerged in adult males treated with estrogen
[7]
  npba expression in Vs/Vp and PMm/PMg of ovariectomized females: restored by estrogen replacement
[8]
  ER expression in Vs/Vp and PMm/PMg of males: induces ER expression
[9]; adult males treated with estrogen
  Cckar expression in ventromedial nucleus of the hypothalamus, males: does not induce expression of Cckar
[9]; ovariectomized adult females treated with estrogen
  Cckar expression in ventromedial nucleus of the hypothalamus, females: reinstated by treatment with estrogen

— PMC6684226, “Neuropeptide B mediates female sexual receptivity in medaka fish, acting in a female-specific but reversible manner” (eLife, 2019)
